For the test, the system named is Normal human melanocyte. As to the kind of experiment: inhibitory action on the elongation of dendrites using human melanocytes. It counts as cell-based. The source says: According to a method shown below, inhibitory action on the elongation of dendrites was examined using human melanocytes. (Reagent, etc.) Cells, basal media, and amplification additives were purchased from KURABO INDUSTRIES LTD. • (Cell) Normal human melanocyte • (Medium) Basal medium (Medium 154S) supplemented with reagents described below • (Reagent) Amplification additive: bovine pituitary extract (BPE) (final concentration of 0.4% v/v in the medium), fetal bovine serum • (FBS) (final concentration of 0.5% v/v in the medium), human recombinant basic fibroblast growth factor (rFGF-B) (final concentration of 3 ng/ml in the medium), hydrocortisone (final concentration of 0.18 μg/ml in the medium), insulin (final concentration 5 μg/ml in the medium), transferrin (final concentration of 5 μg/ml in the medium), phorbol 12-myristate 13-acetate (PMA) (final concentration of 10 ng/ml in the medium), heparin (final concentration of 3 μg/ml in the medium), and PSA solution (mixture solution of penicillin concentration of 50,000 Unit/ml, streptomycin concentration of 50 μg/ml, and amphotericin B concentration of 12.5 μg/ml; 1-ml addition with respect to 500 ml of the medium) (Method)
Compound 1 (methylophiopogonanone B) obtained in the above-described example of production was diluted in a basal medium so that the concentration was brought up to 100 μg/ml, to make a sample solution. […]

For the setting “50 μl of 100 μg/ml sample solution added to 200 μl medium, observed 24 hours after addition, growth factors in medium”, `COc1ccc(CC2COc3c(C)c(O)c(C)c(O)c3C2=O)cc1` (centres unmarked) [Compound 1, 2,3-dihydro-3-[(4-methoxyphenyl)methyl]-5,7-dihydroxy-6,8-dimethyl-4H-1-benzopyran-4-on] yielded a Length of dendrite of 22 ± 6 μm. The “inhibition against the elongation of dendrites (in words)” value (vs control with basal medium only, 24 hours after addition) is recorded as “elongation is inhibited”.
